The subject of one data set is A549. Put plainly: Cytostatic/cytotoxic MTT assay, A549. It counts as cell-based. The following applies: Homo sapiens, A549; 72 h incubation; read-out: MTT, IC50 A549. An excerpt: (§1) Unless otherwise stated, all cells were purchased from the […] (ATCC). The CCRF-CEM line is derived from T lymphoblastic leukemia, evincing high chemosenzitivity, K562 represent cells from a […] patient sample with bcr-abl translocation, HCT116 is colorectal tumor cell line and its p53 gene knock-down counterpart (HCT116p53−/−, Horizon Discovery, UK) is a model of human cancers with p53 inactivation frequently associated with poor prognosis, A549 cell line is lung adenocarcinoma. The daunorubicin resistant subline of CCRF-CEM cells (CEM-DNR bulk) and paclitaxel resistant subline K562-TAX were selected in our laboratory by cultivation of maternal cell lines in increasing concentrations of daunorubicine or paclitaxel, respectively. The CEM-DNR cells overexpress mrp-1 and mdr-1 genes, while K562-TAX cells overexpress mdr-1 only. Both proteins belong to the family of ABC transporters and are involved in the primary and/or acquired multidrug resistance phenomenon (ref.: Gottesman, M. M.; Fojo, T.; Bates, S. E. Multidrug resistance in cancer: role of ATP-dependent transporters. Nat. Rev. Cancer. 2002, 2, 48-58. (b) Noskova, V.; Dzubak, P.; Kuzmina, G.; Ludkova, A.; Stehlik, D.; Trojanec, R.; Janostakova, A.; Korinkova, G.; Mihal, V.; Hajduch, M. In vitro chemoresistance profile and expression/function of MDR associated proteins in resistant cell lines derived from CCRF-CEM, K562, A549 and MDA MB 231 parental cells. Neoplasma 2002, 49, 418-425). Non-malignant MRC-5 and BJ cells, derived from normal human fibroblasts, were used as controls. The cells were maintained in Nunc/Corning 80 cm^2 plastic tissue culture flasks and cultured in cell culture medium (DMEM/RPMI 1640 with 5 g/L glucose, 2 mM glutamine, 100 U/mL penicillin, 100 µg/mL streptomycin, 10% fetal calf serum, and NaHCO3). Cell suspensions were prepared and diluted according to the particular cell type and the expected target cell density (25,000-30,000 cells/well based on cell growth characteristics). Cells were added by pipette (80 L) into 96-well microtiter plates. Inoculates were allowed a pre-incubation period of 24 h at 37° C. and 5% CO2 for stabilization. Four-fold dilutions, in 20-L aliquots, of the intended test concentration were added to the microtiter plate walls at time zero. All test compound concentrations were examined in duplicate. Incubation of the cells with the test compounds lasted for 72 h at 37° C., in a 5% CO2 atmosphere at 100% humidity. At the end of the incubation period, the cells were assayed using MTT. Aliquots (10 L) of the MTT stock solution (5 mg/ml) were pipetted into each well and incubated for another 1-4 h. After this incubation period the formazan produced was dissolved by addition of 100 µL/well of 10% aq SDS (pH 5.5), followed by a further incubation at 37° C. overnight. The optical density was measured at 540 nm. The IC50 value, the drug concentration inhibiting the cell growth by 50%, was calculated from appropriate dose-response curves.
(§2) In vitro cytotoxic/cytostatic activity final nucleosides 1-5 was initially evaluated against […] cell lines derived from human solid tumors including lung (A549 cells) and colon (HCT116 and HCT116p53−/−) carcinomas, as well as leukemia cell lines (CCRF-CEM, CEM-DNR, K562 and K562-TAX) and, for comparison, non-malignant BJ and MRC-5 fibroblasts. Concentrations inhibiting the cell growth by 50% (IC50) were determined using a quantitative metabolic staining with 3-(4,5-dimethylthiazol-2-yl)-2,5-diphenyltetrazolium bromide (MTT) (ref.: Denizot, F.; Lang, R. Rapid colorimetric assay for cell growth and survival: Modifications to the tetrazolium dye procedure giving improved sensitivity and reliability. J. Immunol. Meth. 1986, 89, 271-277) following a 3-day treatment.
Background: Formazan colour is commonly taken as a measure of viable cells.

Another data set relates to HepG2. Put plainly: XTT cytotoxicity assay, HepG2. It counts as cell-based. Particulars: Homo sapiens, HepG2; 72 h incubation; read-out: XTT, IC50 HepG2. How it is done:
(§3) HL-60, Hela S3 and HepG2 cell lines (ATCC) were grown in RPMI-1640 or DMEM medium supplemented with 10% fetal calf serum, […] of streptomycin, 200 U/mL of penicillin G and 4 mM glutamine in a humidified atmosphere containing 5% CO2 at 37° C. Sensitivity of these cell lines to the synthesized compounds was assessed with the use of XTT cell proliferation kit II (Roche Diagnostics GmbH, Mannheim, Germany) according to the manufacturer's instructions. Briefly, cells were seeded in a 96-well plate at a density of 10,000 cells per well (90 μL). After 24 h, 10 μL of the tested compounds were added to the culture media at desired concentration range and incubated for 72 h. After that 50 μL of the XTT solution was added (1 mg/mL XTT+0.383 mg/mL N-methyl dibenzopyrazine methyl sulfate). The absorbance was recorded at 495 nm following a 2 h-incubation with the dye. IC50 values were determined by non-linear regression method using GraphPad Prism version 5.00 for Windows (GraphPad Software, La Jolla, Calif., USA).

A further data set concerns HeLa S3. Briefly: XTT cytotoxicity assay, HeLa S3. It counts as cell-based. Particulars: Homo sapiens, HeLa S3; 72 h incubation; read-out: XTT, IC50 HeLa S3. How it is done:
as §3
(§4) In addition, the anti-proliferative effect was tested against a human T-lymphoblastic leukemia line CCRF-CEM, promyelocytic leukemia HL-60 and cervical carcinoma HeLa S3 growing in liquid suspension. Cell viability was determined following a 3-day incubation using 2,3-bis-(2-methoxy-4-nitro-5-sulfophenyl)-2H-tetrazolium-5-carboxanilide (XTT) assay (ref.: Scudiero, D. A.; Shoemaker, R. H.; Paull, K. D.; Monks, A.; Tierney, S.; Nofziger, T. H.; Currens, M. J.; Seniff, D.; Boyd M. R. Evaluation of a Soluble Tetrazolium/Formazan Assay for Cell Growth and Drug Sensitivity in Culture Using Human and Other Tumor Cell Lines. Cancer Res. 1988, 48, 4827-4833).

For another data set, the system named is CEM-DNR-bulk. Briefly: Cytostatic/cytotoxic MTT assay, CEM-DNR-bulk. It counts as cell-based. The following applies: Homo sapiens; daunorubicin resistant subline, 72 h; read-out: MTT, IC50 CEM-DNR-bulk.
Source text: as §1, §2
(§5) Multidrug resistance is a major therapeutic problem in cancer chemotherapy. […]

A further data set relates to CCRF-CEM. Briefly: Cytostatic/cytotoxic MTT assay, CCRF-CEM. Type of data set: cell-based. The following applies: Homo sapiens, 72 h incubation, read-out: MTT, IC50 CCRF-CEM.
Source text: as §1, §2

For another data set, the system named is HL60. Put plainly: XTT cytotoxicity assay, HL-60. It counts as cell-based. The following applies: Homo sapiens, HL-60; 72 h incubation; read-out: XTT, IC50 HL60. The method, then:
as §3, §4

The subject of the next data set is HCT116p53-/-. Briefly: Cytostatic/cytotoxic MTT assay, HCT116p53-/-. Particulars: Homo sapiens, HCT-116; 72 h incubation; read-out: MTT, IC50 HCT116 p53-/-. It counts as cell-based.
Source text: as §1, §2, §5

In a further data set the test system is MRC-5. Put plainly: Cytostatic/cytotoxic MTT assay, MRC-5 fibroblasts. Type of data set: cell-based. The following applies: Homo sapiens, MRC5; non-malignant fibroblasts, 72 h; read-out: MTT, IC50 MRC-5.
Source text: as §1, §2

A further data set relates to K562. Put plainly: Cytostatic/cytotoxic MTT assay, K562. Particulars: Homo sapiens, K562; 72 h incubation; read-out: MTT, IC50 K562. It counts as cell-based.
Source text: as §1, §2

A further data set concerns HCT116. Briefly: Cytostatic/cytotoxic MTT assay, HCT116. It counts as cell-based. Particulars: Homo sapiens, HCT-116; 72 h incubation; read-out: MTT, IC50 HCT116.
Source text: as §1, §2, §5

The subject of a further data set is BJ. Put plainly: Cytostatic/cytotoxic MTT assay, BJ fibroblasts. Type of data set: cell-based. Particulars: Homo sapiens, non-malignant fibroblasts, 72 h, read-out: MTT, IC50 BJ.
Source text: as §1, §2

Another data set relates to K562-TAX. Briefly: Cytostatic/cytotoxic MTT assay, K562-TAX. It counts as cell-based. The following applies: Homo sapiens, paclitaxel resistant subline, 72 h, read-out: MTT, IC50 K562-TAX.
Source text: as §1, §2, §5

pIC50: −log10 of the molar value. A value given as a limit tells only on which side of the number the result lay.

In the case of `CNc1ncnc2c1c(I)cn2[C@@H]1O[C@H](CO)[C@@H](O)[C@H]1O` [Compound 3h, 5-Iodo-4-methylamino-7-(β-D-ribofuranosyl)-7H-pyrrolo[2,3-d]pyrimidine], the pIC50 in the data set with A549 was less than 4.00; with HepG2, less than 4.70; in the data set with HeLa S3 it was less than 4.70; with CEM-DNR-bulk, less than 4.70; with CCRF-CEM it was less than 4.00; in the data set with HL60 it was less than 4.70. For the same compound, the pIC50 is less than 4.00 in the data set on HCT116p53-/-; less than 4.00 in the data set with MRC-5; less than 4.00 with K562; less than 4.00 in the data set on HCT116; less than 4.00 with BJ; less than 4.70 in the data set with K562-TAX.
As for `Cc1ncnc2c1c(I)cn2[C@@H]1O[C@H](CO)[C@@H](O)[C@H]1O` [Compound 5h, 5-Iodo-4-methyl-7-(β-D-ribofuranosyl)-7H-pyrrolo[2,3-d]pyrimidine], the pIC50 is 4.91 with A549; 5.46 with HepG2; 5.39 in the data set with HeLa S3; 4.90 in the data set with CEM-DNR-bulk; 5.26 in the data set with CCRF-CEM; 5.58 in the data set on HL60. The pIC50 in the data set with HCT116p53-/- is 5.12; in the data set with MRC-5 it was 4.88; with K562 it was 4.75; in the data set on HCT116 it was 5.33; with BJ, less than 4.00; with K562-TAX it was less than 4.70.
On to `Cc1ncnc2c1c(Br)cn2[C@@H]1O[C@H](CO)[C@@H](O)[C@H]1O` [Compound 5i, 5-Bromo-4-methyl-7-(β-D-ribofuranosyl)-7H-pyrrolo[2,3-d]pyrimidine], for which the melting point – broadly, the temperature of the solid-liquid transition – was in the range of 188 to 189 °C. Besides, the pIC50 with A549 was less than 4.70. For the same compound, the pIC50 with HepG2 was 5.26. Also, the pIC50 in the data set on HeLa S3 is 4.86. For the same compound, the pIC50 in the data set on CEM-DNR-bulk is less than 4.70. For the same compound, the pIC50 in the data set on CCRF-CEM is 4.82. The pIC50 with HL60 is 5.14. Further, the pIC50 with HCT116p53-/- was 4.71. Besides, the pIC50 in the data set on MRC-5 is 4.61. For the same compound, the pIC50 with K562 was less than 4.70. Moreover, the pIC50 with HCT116 is 4.80. The pIC50 with BJ was less than 4.00. In the data set on K562-TAX, the pIC50 was 4.80.

The values above are taken from patent publication US9586986B2, “Substituted 7-deazapurine ribonucleosides for therapeutic uses” (Institute of Organic Chemistry and Biochemistry ASCR, v.v.i., priority 2014, dated 2017).
